Literature values in patent US20120141548A1, “NOVEL FORMULATION OF MELOXICAM” (FUNDACIONUNIVERSIDAD DEL NORTE, priority 2009, published 2012).

Columns and labels:
[1] = conventional meloxicam

Tmax [1]: 4 to 5 h | water solubility: poorly water soluble
Structure (SMILES): Cc1cnc(NC(=O)C2=C(O)c3ccccc3S(=O)(=O)N2C)s1 [Meloxicam, meloxicam]
